Data from patent publication US20020051978A1, “Methods and compositions for the identification, assessment, prevention and therapy of human cancers” (priority 2000, published 2002).
Read-outs that look alike come from different tables or passages of the source.

Assays:
[1] = system: 60 cancer cell lines (NCI 60 cancer cell line series); experiment: NCI-DTP in vitro cancer screen, sulforhodamine B (SRB) growth inhibition, 48 hour exposure; type: cell-based, human; set-up: key to sensitivity class Ovarian OVCAR-8 CL6005 / sensitivity class Ovarian SK-OV-3 CL6011 / sensitivity class Prostate DU-145 CL11003 / sensitivity class NSCLC NCI-H522 CL1003 / sensitivity class Ovarian IGROV1 CL6010 / sensitivity class Ovarian OVCAR-4 CL6002 / sensitivity class Prostate PC-3(I) CL11001 / sensitivity class Renal A498 CL9013 / sensitivity class Renal SN12C CL9008: sensitivity class: 1 = Low, 2 = Medium, 3 = High
Outline: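 Values come from the NCI-DTP screen database: -log GI50, the concentration giving 50% growth inhibition, derived from SRB cell-mass dose-response curves. Each line seeded at its own density, treated day 1 at five ten-fold-spaced doses in duplicate wells, stained after 48 h.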

[2] = system: 60 cancer cell lines (NCI 60 cancer cell line series); conditions: cited from earlier work

SMILES: Sc1ncnc2nc[nH]c12 [6-mercaptopurine]
- classification of cell line as Low(1), Medium(2) or High(3) sensitivity to compound ([1]; Breast BT-549 (CL5013)): 1
- classification of cell line as Low(1), Medium(2) or High(3) sensitivity to compound ([1]; Breast HS-578T CL5006): 1
- classification of cell line as Low(1), Medium(2) or High(3) sensitivity to compound ([1]; Breast MCF7(I) (CL5001)): 2
- classification of cell line as Low(1), Medium(2) or High(3) sensitivity to compound ([1]; Breast MCF7/ADRr (CL5002)): 2
- classification of cell line as Low(1), Medium(2) or High(3) sensitivity to compound ([1]; Breast MDA-MB-231 CL5005): 1
- classification of cell line as Low(1), Medium(2) or High(3) sensitivity to compound ([1]; Breast MDA-MB-435 (CL5011)): 2
- classification of cell line as Low(1), Medium(2) or High(3) sensitivity to compound ([1]; Breast MDA-N CL5012): 2
- classification of cell line as Low(1), Medium(2) or High(3) sensitivity to compound ([1]; Breast T-47D (CL5014)): 2
- classification of cell line as Low(1), Medium(2) or High(3) sensitivity to compound ([1]; CNS SF-268 CL12014): 2
- classification of cell line as Low(1), Medium(2) or High(3) sensitivity to compound ([1]; CNS SF-295 CL12015): 2
- classification of cell line as Low(1), Medium(2) or High(3) sensitivity to compound ([1]; CNS SF-539 CL12016): 2
- classification of cell line as Low(1), Medium(2) or High(3) sensitivity to compound ([1]; CNS SNB-19 (CL12002)): 1
- classification of cell line as Low(1), Medium(2) or High(3) sensitivity to compound ([1]; CNS SNB-75(I) CL12005): 2
- classification of cell line as Low(1), Medium(2) or High(3) sensitivity to compound ([1]; CNS U251(I) CL12009): 2
- classification of cell line as Low(1), Medium(2) or High(3) sensitivity to compound ([1]; Colon COLO-250 CL4010): 2
- classification of cell line as Low(1), Medium(2) or High(3) sensitivity to compound ([1]; Colon HCC-2998 (CL4002)): 2
- classification of cell line as Low(1), Medium(2) or High(3) sensitivity to compound ([1]; Colon HCT-15 CL4015): 2
- classification of cell line as Low(1), Medium(2) or High(3) sensitivity to compound ([1]; Colon HCT-116 (CL4003)): 2
- classification of cell line as Low(1), Medium(2) or High(3) sensitivity to compound ([1]; Colon HT29(I) CL4001): 2
- classification of cell line as Low(1), Medium(2) or High(3) sensitivity to compound ([1]; Colon KM12 (CL4017)): 2
- classification of cell line as Low(1), Medium(2) or High(3) sensitivity to compound ([1]; Colon SW-620 (CL4009)): 2
- classification of cell line as Low(1), Medium(2) or High(3) sensitivity to compound ([1]; Leukemia CCRF-CEM(I) (CL7003)): 3
- classification of cell line as Low(1), Medium(2) or High(3) sensitivity to compound ([1]; Leukemia HL-60(I) (CL7008)): 2
- classification of cell line as Low(1), Medium(2) or High(3) sensitivity to compound ([1]; Leukemia K562(I) CL7005): 3
- classification of cell line as Low(1), Medium(2) or High(3) sensitivity to compound ([1]; Leukemia MOLT-4 (CL7006)): 2
- classification of cell line as Low(1), Medium(2) or High(3) sensitivity to compound ([1]; Leukemia RPMI-8226(I) (CL7010)): 2
- classification of cell line as Low(1), Medium(2) or High(3) sensitivity to compound ([1]; Leukemia SR CL7019): 3
- classification of cell line as Low(1), Medium(2) or High(3) sensitivity to compound ([1]; Melanoma LOX IMVI CL10001): 3
- classification of cell line as Low(1), Medium(2) or High(3) sensitivity to compound ([1]; Melanoma M14 (CL10014)): 3
- classification of cell line as Low(1), Medium(2) or High(3) sensitivity to compound ([1]; Melanoma MALME-3M CL10002): 2
- classification of cell line as Low(1), Medium(2) or High(3) sensitivity to compound ([1]; Melanoma SK-MEL-2 (CL10005)): 2
- classification of cell line as Low(1), Medium(2) or High(3) sensitivity to compound ([1]; Melanoma SK-MEL-5 (CL10007)): 2
- classification of cell line as Low(1), Medium(2) or High(3) sensitivity to compound ([1]; Melanoma SK-MEL-28 (CL10008)): 1
- classification of cell line as Low(1), Medium(2) or High(3) sensitivity to compound ([1]; Melanoma UACC-62 (CL10020)): 2
- classification of cell line as Low(1), Medium(2) or High(3) sensitivity to compound ([1]; Melanoma UACC-257 (CL10021)): 1
- classification of cell line as Low(1), Medium(2) or High(3) sensitivity to compound ([1]; NSCLC A549/ATCC (CL1004)): 1
- classification of cell line as Low(1), Medium(2) or High(3) sensitivity to compound ([1]; NSCLC EKVX (CL1008)): 1
- classification of cell line as Low(1), Medium(2) or High(3) sensitivity to compound ([1]; NSCLC HOP-62 (CL1026)): 2
- classification of cell line as Low(1), Medium(2) or High(3) sensitivity to compound ([1]; NSCLC HOP-92 (CL1029)): 2
- classification of cell line as Low(1), Medium(2) or High(3) sensitivity to compound ([1]; NSCLC NCI-H226 CL1013): 1
- sensitivity class NSCLC NCI-H23(I) CL1001 ([1]; cell line NSCLC NCI-H23(I), CL1001): 2
- sensitivity class NSCLC NCI-H332M CL1017 ([1]; cell line NSCLC NCI-H332M, CL1017): 2
- sensitivity class NSCLC NCI-H460 CL1021 ([1]; cell line NSCLC NCI-H460, CL1021): 2
- sensitivity class NSCLC NCI-H522 CL1003 ([1]; cell line NSCLC NCI-H522, CL1003): 2
- sensitivity class Ovarian IGROV1 CL6010 ([1]; cell line Ovarian IGROV1, CL6010): 2
- sensitivity class Ovarian OVCAR-3 CL6001 ([1]; cell line Ovarian OVCAR-3, CL6001): 3
- sensitivity class Ovarian OVCAR-4 CL6002 ([1]; cell line Ovarian OVCAR-4, CL6002): 2
- sensitivity class Ovarian OVCAR-5 CL6003 ([1]; cell line Ovarian OVCAR-5, CL6003): 2
- sensitivity class Ovarian OVCAR-8 CL6005 ([1]; cell line Ovarian OVCAR-8, CL6005): 2
- sensitivity class Ovarian SK-OV-3 CL6011 ([1]; cell line Ovarian SK-OV-3, CL6011): 3
- sensitivity class Prostate DU-145 CL11003 ([1]; cell line Prostate DU-145, CL11003): 2
- sensitivity class Prostate PC-3(I) CL11001 ([1]; cell line Prostate PC-3(I), CL11001): 2
- sensitivity class Renal 786-O CL9018 ([1]; cell line Renal 786-O, CL9018): 2
- sensitivity class Renal A498 CL9013 ([1]; cell line Renal A498, CL9013): 1
- sensitivity class Renal ACHN CL9023 ([1]; cell line Renal ACHN, CL9023): 2
- sensitivity class Renal CAKI-1 CL9015 ([1]; cell line Renal CAKI-1, CL9015): 2
- sensitivity class Renal RXF-393 CL9016 ([1]; cell line Renal RXF-393, CL9016): 1
- sensitivity class Renal SN12C CL9008 ([1]; cell line Renal SN12C, CL9008): 1
- sensitivity class Renal TK10 CL9024 ([1]; cell line Renal TK10, CL9024): 2
- sensitivity class Renal UO-31 CL9004 ([1]; cell line Renal UO-31, CL9004): 2
- -Log (GI50) ([2]; Breast BT-549 (CL5013)): 3.9
- -Log (GI50) ([2]; Breast HS-578T CL5006): 4.8
- -Log (GI50) ([2]; Breast MCF7(I) (CL5001)): 5.8
- -Log (GI50) ([2]; Breast MCF7/ADRr (CL5002)): 5.5
- -Log (GI50) ([2]; Breast MDA-MB-231 CL5005): 4.7
- -Log (GI50) ([2]; Breast MDA-MB-435 (CL5011)): 5.9
- -Log (GI50) ([2]; Breast MDA-N CL5012): 5.8
- -Log (GI50) ([2]; Breast T-47D (CL5014)): 5.4
- -Log (GI50) ([2]; CNS SF-268 CL12014): 5.4
- -Log (GI50) ([2]; CNS SF-295 CL12015): 5.3
- -Log (GI50) ([2]; CNS SF-539 CL12016): 5.6
- -Log (GI50) ([2]; CNS SNB-19 (CL12002)): 3.9
- -Log (GI50) ([2]; CNS SNB-75(I) CL12005): 5.1
- -Log (GI50) ([2]; CNS U251(I) CL12009): 4.9
- -Log (GI50) ([2]; Colon COLO-250 CL4010): 5.3
- -Log (GI50) ([2]; Colon HCC-2998 (CL4002)): 5.5
- -Log (GI50) ([2]; Colon HCT-15 CL4015): 5.4
- -Log (GI50) ([2]; Colon HCT-116 (CL4003)): 5.6
- -Log (GI50) ([2]; Colon HT29(I) CL4001): 5.4
- -Log (GI50) ([2]; Colon KM12 (CL4017)): 5.1
- -Log (GI50) ([2]; Colon SW-620 (CL4009)): 5.2
- -Log (GI50) ([2]; Leukemia CCRF-CEM(I) (CL7003)): 5.9
- -Log (GI50) ([2]; Leukemia HL-60(I) (CL7008)): 5.6
- -Log (GI50) ([2]; Leukemia K562(I) CL7005): 6.5
- -Log (GI50) ([2]; Leukemia MOLT-4 (CL7006)): 5.8
- -Log (GI50) ([2]; Leukemia RPMI-8226(I) (CL7010)): 5.8
- -Log (GI50) ([2]; Leukemia SR CL7019): 5.9
- -Log (GI50) ([2]; Melanoma LOX IMVI CL10001): 6.4
- -Log (GI50) ([2]; Melanoma M14 (CL10014)): 6.2
- -Log (GI50) ([2]; Melanoma MALME-3M CL10002): 5.4
- -Log (GI50) ([2]; Melanoma SK-MEL-2 (CL10005)): 5.2
- -Log (GI50) ([2]; Melanoma SK-MEL-5 (CL10007)): 5.1
- -Log (GI50) ([2]; Melanoma SK-MEL-28 (CL10008)): 3.5
- -Log (GI50) ([2]; Melanoma UACC-62 (CL10020)): 5.8
- -Log (GI50) ([2]; Melanoma UACC-257 (CL10021)): 4.8
- -Log (GI50) ([2]; NCSLC NCI-H522 CL1003): 5.8
- -Log (GI50) ([2]; NSCLC A549/ATCC (CL1004)): 4.6
- -Log (GI50) ([2]; NSCLC EKVX (CL1008)): 3.6
- -Log (GI50) ([2]; NSCLC HOP-62 (CL1026)): 5.7
- -Log (GI50) ([2]; NSCLC HOP-92 (CL1029)): 5.6
- -Log (GI50) ([2]; NSCLC NCI-H23(I) CL1001): 5.4
- -Log (GI50) ([2]; NSCLC NCI-H226 CL1013): 4.3
- -Log (GI50) ([2]; NSCLC NCI-H332M CL1017): 5.1
- -Log (GI50) ([2]; NSCLC NCI-H460 CL1021): 5.3
- -Log (GI50) ([2]; Ovarian IGROV1 CL6010): 5.1
- -Log (GI50) ([2]; Ovarian OVCAR-3 CL6001): 6.1
- -Log (GI50) ([2]; Ovarian OVCAR-4 CL6002): 5.1
- -Log (GI50) ([2]; Ovarian OVCAR-5 CL6003): 5.1
- -Log (GI50) ([2]; Ovarian OVCAR-8 CL6005): 5.6
- -Log (GI50) ([2]; Ovarian SK-OV-3 CL6011): 6.0
- -Log (GI50) ([2]; Prostate DU-145 CL11003): 5.6
- -Log (GI50) ([2]; Prostate PC-3(I) CL11001): 5.4
- -Log (GI50) ([2]; Renal 786-O CL9018): 5.7
- -Log (GI50) ([2]; Renal A498 CL9013): 4.2
- -Log (GI50) ([2]; Renal ACHN CL9023): 5.2
- -Log (GI50) ([2]; Renal CAKI-1 CL9015): 5.6
- -Log (GI50) ([2]; Renal RXF-393 CL9016): 4.5
- -Log (GI50) ([2]; Renal SN12C CL9008): 4.6
- -Log (GI50) ([2]; Renal TK10 CL9024): 5.7
- -Log (GI50) ([2]; Renal UO-31 CL9004): 5.2
